Measured values from US20240238242A1, “EGCG buccal tablet and use thereof” (priority 2023, published 2024).
“And” between values parts separate entries of the source, which are not always exact repeats. Equal values may be shown once.

Test system: Coronavirus (hCoV-229E)
Assay: Inactivation efficiency against coronavirus hCoV-229E strain (residual TCID50 on Huh-7 cells)
Type: cell-based
Settings: for CPE test (virus replication in cell wells): wells 1-10; for average inactivation efficiency against virus / inactivation efficiency against the virus: hCoV-229E virus; for average inactivation efficiency against virus: three experiments; for inactivation efficiency against the virus: single experiment

## O=C(O[C@@H]1Cc2c(O)cc(O)cc2O[C@@H]1c1cc(O)c(O)c(O)c1)c1cc(O)c(O)c(O)c1 [EGCG, Epigallocatechin gallate]
1 mM EGCG + virus, co-incubated 5 minute, second experiment, dilution factor 10^8, wells 1-10
  CPE test (virus replication in the cell wells): −
1 mM EGCG + virus, co-incubated 5 minutes, dilution factor 10^1, wells 1-10, third experiment
  CPE test (virus replication in the cell wells): +
1 mM EGCG + virus, co-incubated 5 minutes, dilution factor 10^2, wells 1-10, third experiment
  CPE test (virus replication in the cell wells): +
1 mM EGCG + virus, co-incubated 5 minutes, dilution factor 10^3, wells 1-10, third experiment
  CPE test (virus replication in the cell wells): +
1 mM EGCG + virus, co-incubated 5 minutes, dilution factor 10^4, wells 1-10, third experiment
  CPE test (virus replication in the cell wells): +
1 mM EGCG + virus, co-incubated 5 minutes, dilution factor 10^5, wells 1-10, third experiment
  CPE test (virus replication in the cell wells): + and −
1 mM EGCG + virus, co-incubated 5 minutes, dilution factor 10^6, wells 1-10, third experiment
  CPE test (virus replication in the cell wells): − and +
1 mM EGCG + virus, co-incubated 5 minutes, dilution factor 10^7, wells 1-10, third experiment
  CPE test (virus replication in the cell wells): −
1 mM EGCG + virus, co-incubated 5 minutes, dilution factor 10^8, wells 1-10, third experiment
  CPE test (virus replication in the cell wells): −
1 mM EGCG + virus, hCoV-229E co-incubated 1 minute, second experiment, dilution factor 10^1
  CPE test (virus replication in cell wells): +
1 mM EGCG + virus, hCoV-229E co-incubated 1 minute, second experiment, dilution factor 10^2
  CPE test (virus replication in cell wells): +
1 mM EGCG + virus, hCoV-229E co-incubated 1 minute, second experiment, dilution factor 10^3
  CPE test (virus replication in cell wells): +
1 mM EGCG + virus, hCoV-229E co-incubated 1 minute, second experiment, dilution factor 10^4
  CPE test (virus replication in cell wells): + and −
1 mM EGCG + virus, hCoV-229E co-incubated 1 minute, second experiment, dilution factor 10^5
  CPE test (virus replication in cell wells): − and +
1 mM EGCG + virus, hCoV-229E co-incubated 1 minute, second experiment, dilution factor 10^6
  CPE test (virus replication in cell wells): −
1 mM EGCG + virus, hCoV-229E co-incubated 1 minute, second experiment, dilution factor 10^7
  CPE test (virus replication in cell wells): −
1 mM EGCG + virus, hCoV-229E co-incubated 1 minute, second experiment, dilution factor 10^8
  CPE test (virus replication in cell wells): −
1 mM EGCG + virus, hCoV-229E co-incubated 1 minute, third experiment, dilution factor 10^1
  CPE test (virus replication in cell wells): +
1 mM EGCG + virus, hCoV-229E co-incubated 1 minute, third experiment, dilution factor 10^2
  CPE test (virus replication in cell wells): +
1 mM EGCG + virus, hCoV-229E co-incubated 1 minute, third experiment, dilution factor 10^3
  CPE test (virus replication in cell wells): +
1 mM EGCG + virus, hCoV-229E co-incubated 1 minute, third experiment, dilution factor 10^4
  CPE test (virus replication in cell wells): +
1 mM EGCG + virus, hCoV-229E co-incubated 1 minute, third experiment, dilution factor 10^5
  CPE test (virus replication in cell wells): + and −
1 mM EGCG + virus, hCoV-229E co-incubated 1 minute, third experiment, dilution factor 10^6
  CPE test (virus replication in cell wells): − and +
1 mM EGCG + virus, hCoV-229E co-incubated 1 minute, third experiment, dilution factor 10^7
  CPE test (virus replication in cell wells): −
1 mM EGCG + virus, hCoV-229E co-incubated 1 minute, third experiment, dilution factor 10^8
  CPE test (virus replication in cell wells): −
1 mM EGCG, 1 minute
  average inactivation efficiency against virus: 49.71%
1 mM EGCG, 5 minutes
  inactivation efficiency against the virus: 49.88% and 36.90%
  average inactivation efficiency against virus: 45.55%
5 mM EGCG + hCoV-229E virus, co-incubated 1 minute, first experiment, dilution factor 10^2
  CPE test (virus replication in cell wells): +
5 mM EGCG + hCoV-229E virus, co-incubated 1 minute, first experiment, dilution factor 10^3
  CPE test (virus replication in cell wells): +
5 mM EGCG + hCoV-229E virus, co-incubated 1 minute, first experiment, dilution factor 10^4
  CPE test (virus replication in cell wells): +
5 mM EGCG + hCoV-229E virus, co-incubated 1 minute, first experiment, dilution factor 10^5
  CPE test (virus replication in cell wells): + and −
5 mM EGCG + hCoV-229E virus, co-incubated 1 minute, first experiment, dilution factor 10^6
  CPE test (virus replication in cell wells): −
5 mM EGCG + hCoV-229E virus, co-incubated 1 minute, first experiment, dilution factor 10^7
  CPE test (virus replication in cell wells): −
5 mM EGCG + hCoV-229E virus, co-incubated 1 minute, first experiment, dilution factor 10^8
  CPE test (virus replication in cell wells): −
5 mM EGCG + virus, co-incubated 5 minute, first experiment, dilution factor 10^2, wells 1-10
  CPE test (virus replication in the cell wells): +
5 mM EGCG + virus, co-incubated 5 minute, first experiment, dilution factor 10^3, wells 1-10
  CPE test (virus replication in the cell wells): +
5 mM EGCG + virus, co-incubated 5 minute, first experiment, dilution factor 10^4, wells 1-10
  CPE test (virus replication in the cell wells): +
5 mM EGCG + virus, co-incubated 5 minute, first experiment, dilution factor 10^5, wells 1-10
  CPE test (virus replication in the cell wells): − and +
5 mM EGCG + virus, co-incubated 5 minute, first experiment, dilution factor 10^6, wells 1-10
  CPE test (virus replication in the cell wells): −
5 mM EGCG + virus, co-incubated 5 minute, first experiment, dilution factor 10^7, wells 1-10
  CPE test (virus replication in the cell wells): −
5 mM EGCG + virus, co-incubated 5 minute, first experiment, dilution factor 10^8, wells 1-10
  CPE test (virus replication in the cell wells): −
5 mM EGCG + virus, co-incubated 5 minute, second experiment, dilution factor 10^2, wells 1-10
  CPE test (virus replication in the cell wells): +
5 mM EGCG + virus, co-incubated 5 minute, second experiment, dilution factor 10^3, wells 1-10
  CPE test (virus replication in the cell wells): +
5 mM EGCG + virus, co-incubated 5 minute, second experiment, dilution factor 10^4, wells 1-10
  CPE test (virus replication in the cell wells): +
5 mM EGCG + virus, co-incubated 5 minute, second experiment, dilution factor 10^5, wells 1-10
  CPE test (virus replication in the cell wells): − and +
5 mM EGCG + virus, co-incubated 5 minute, second experiment, dilution factor 10^6, wells 1-10
  CPE test (virus replication in the cell wells): − and +
5 mM EGCG + virus, co-incubated 5 minute, second experiment, dilution factor 10^7, wells 1-10
  CPE test (virus replication in the cell wells): −
5 mM EGCG + virus, co-incubated 5 minute, second experiment, dilution factor 10^8, wells 1-10
  CPE test (virus replication in the cell wells): −
5 mM EGCG + virus, co-incubated 5 minutes, dilution factor 10^1, wells 1-10, third experiment
  CPE test (virus replication in the cell wells): +
5 mM EGCG + virus, co-incubated 5 minutes, dilution factor 10^2, wells 1-10, third experiment
  CPE test (virus replication in the cell wells): +
5 mM EGCG + virus, co-incubated 5 minutes, dilution factor 10^3, wells 1-10, third experiment
  CPE test (virus replication in the cell wells): +
5 mM EGCG + virus, co-incubated 5 minutes, dilution factor 10^4, wells 1-10, third experiment
  CPE test (virus replication in the cell wells): +
5 mM EGCG + virus, co-incubated 5 minutes, dilution factor 10^5, wells 1-10, third experiment
  CPE test (virus replication in the cell wells): + and −
5 mM EGCG + virus, co-incubated 5 minutes, dilution factor 10^6, wells 1-10, third experiment
  CPE test (virus replication in the cell wells): − and +
5 mM EGCG + virus, co-incubated 5 minutes, dilution factor 10^7, wells 1-10, third experiment
  CPE test (virus replication in the cell wells): −
5 mM EGCG + virus, co-incubated 5 minutes, dilution factor 10^8, wells 1-10, third experiment
  CPE test (virus replication in the cell wells): −
5 mM EGCG + virus, hCoV-229E co-incubated 1 minute, second experiment, dilution factor 10^2
  CPE test (virus replication in cell wells): +
5 mM EGCG + virus, hCoV-229E co-incubated 1 minute, second experiment, dilution factor 10^3
  CPE test (virus replication in cell wells): + and −
5 mM EGCG + virus, hCoV-229E co-incubated 1 minute, second experiment, dilution factor 10^4
  CPE test (virus replication in cell wells): +
5 mM EGCG + virus, hCoV-229E co-incubated 1 minute, second experiment, dilution factor 10^5
  CPE test (virus replication in cell wells): − and +
5 mM EGCG + virus, hCoV-229E co-incubated 1 minute, second experiment, dilution factor 10^6
  CPE test (virus replication in cell wells): −
5 mM EGCG + virus, hCoV-229E co-incubated 1 minute, second experiment, dilution factor 10^7
  CPE test (virus replication in cell wells): −
5 mM EGCG + virus, hCoV-229E co-incubated 1 minute, second experiment, dilution factor 10^8
  CPE test (virus replication in cell wells): −
5 mM EGCG + virus, hCoV-229E co-incubated 1 minute, third experiment, dilution factor 10^2
  CPE test (virus replication in cell wells): +
5 mM EGCG + virus, hCoV-229E co-incubated 1 minute, third experiment, dilution factor 10^3
  CPE test (virus replication in cell wells): +
5 mM EGCG + virus, hCoV-229E co-incubated 1 minute, third experiment, dilution factor 10^4
  CPE test (virus replication in cell wells): +
5 mM EGCG + virus, hCoV-229E co-incubated 1 minute, third experiment, dilution factor 10^5
  CPE test (virus replication in cell wells): + and −
5 mM EGCG + virus, hCoV-229E co-incubated 1 minute, third experiment, dilution factor 10^6
  CPE test (virus replication in cell wells): − and +
5 mM EGCG + virus, hCoV-229E co-incubated 1 minute, third experiment, dilution factor 10^7
  CPE test (virus replication in cell wells): −
5 mM EGCG + virus, hCoV-229E co-incubated 1 minute, third experiment, dilution factor 10^8
  CPE test (virus replication in cell wells): −
5 mM EGCG, 1 minute
  inactivation efficiency against the virus: 68.38% and 49.88%
  average inactivation efficiency against virus: 62.21%
5 mM EGCG, 5 minutes
  inactivation efficiency against the virus: 60.19% and 36.90% and 49.88%
  average inactivation efficiency against virus: 48.99%
